PMC2880850 (Journal of medicinal chemistry, 2010)
“Also recorded” adds a separate entry of the source.

Key:
[1] = system: MDA-MB-231 breast cancer cells; details: read-out: EC50 in killing MDA-MB-231 breast cancer cells; cited from earlier work
GST–Bcl-XL ΔTM protein = GST–Bcl-XL ΔTM protein (Homo sapiens, UniProt Q07817); details: read-out: IC50 binding to Bcl-XL in FPA assays; cited from earlier work
Bcl-XL = Bcl-XL (Homo sapiens, UniProt Q07817); test: Isothermal Titration Calorimetry assay; assay type: binding; details: Kd ratio
[2] = system: Bax/Bak double knockout MEF cells (MEF/DKO); test: FITC-Annexin V/PI assay, Bax/Bak double knockout MEF; assay type: cell-based, mouse; details: for toxicity in MEF/DKO cells: 30 μM, FITC-Annexin V/PI
[3] = system: B6 transgenic mice overexpressing human Bcl-2 in B-cells; test: Bcl-2 transgenic mice, spleen weight; assay type: in vivo, mouse; details: single i.p. injection at 42 mg/kg, 24 hours
[4] = Chemical stability at different temperatures; assay type: physicochemical
BP3 cell line = test: Apoptosis assay, Annexin V-FITC and propidium iodide, BP3; assay type: cell-based, human

Chain of GST–Bcl-XL ΔTM protein (Q07817 1-211 limits assumed, stated change not applied): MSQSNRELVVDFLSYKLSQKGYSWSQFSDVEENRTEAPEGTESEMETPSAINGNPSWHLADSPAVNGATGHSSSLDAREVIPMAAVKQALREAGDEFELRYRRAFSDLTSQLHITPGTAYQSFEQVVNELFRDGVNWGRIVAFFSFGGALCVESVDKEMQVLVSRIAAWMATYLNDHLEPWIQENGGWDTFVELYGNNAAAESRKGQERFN
Chain of Bcl-XL (Q07817 whole entry): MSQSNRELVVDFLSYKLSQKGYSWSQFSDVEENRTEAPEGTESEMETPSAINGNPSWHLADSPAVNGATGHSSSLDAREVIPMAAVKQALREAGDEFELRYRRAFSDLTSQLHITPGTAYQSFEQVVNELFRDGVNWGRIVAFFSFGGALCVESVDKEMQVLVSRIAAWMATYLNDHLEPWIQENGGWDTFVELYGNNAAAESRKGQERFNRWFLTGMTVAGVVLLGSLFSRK

**Q.** With `Cc1cc2c(C(C)C)c(O)c(O)c(C=O)c2c(O)c1-c1c(C)cc2c(C(C)C)c(O)c(O)c(C=O)c2c1O` (single isomer, unassigned) [(+) 1, Gossypol] as the compound, how does the EC50 [1] read?
**A.** ~10 µM

**Q.** With `Cc1cc2c(C(C)C)c(O)c(O)c(C=O)c2c(O)c1-c1c(C)cc2c(C(C)C)c(O)c(O)c(C=O)c2c1O` (single isomer, unassigned) [(−) 1, Gossypol] as the compound, how does the IC50 (GST–Bcl-XL ΔTM protein) read?
**A.** 480 nM

**Q.** And the EC50 [1]?
**A.** ~2 µM

**Q.** What does the source list for `Cc1cc2c(C(=O)NC[C@H](C)c3ccccc3)c(O)c(O)cc2c(O)c1-c1c(C)cc2c(C(=O)NC[C@H](C)c3ccccc3)c(O)c(O)cc2c1O` (single isomer, unassigned) [Compound 11]?
**A.** times more potent than other isomers 12–14 in ITC assay (Bcl-XL): 4–20 times; cytotoxicity against bax−/−bak−/− cells [2]: less cytotoxicity against bax^−/−bak^−/− cells compared to compound 4; also recorded: little cytotoxicity; toxicity in MEF/DKO cells [2]: slight toxicity; spleen weight reduction [3]: more than 30%; chemical stability [4]: better chemical stability compared to other compounds (12–14); inhibition of tumor growth (M2182 tumor xenografts; 5 mg/kg i.p. every 2 days, nine injections, both flanks): near complete inhibition of tumor growth; tolerability of treatment (M2182 tumor xenografts; mouse, in vivo, ip): no apparent signs of toxicity

**Q.** Which spleen weight reduction [3] does the source give for `Cc1cc2c(C(=O)NC[C@H](C)c3ccccc3)c(O)c(O)cc2c(O)c1-c1c(C)cc2c(C(=O)NC[C@H](C)c3ccccc3)c(O)c(O)cc2c1O` (single isomer, unassigned) [Compound 12] here?
**A.** weak in vivo activity

**Q.** With `CN(C)CC[C@H](CSc1ccccc1)Nc1ccc(S(=O)(=O)NC(=O)c2ccc(N3CCN(Cc4ccccc4-c4ccc(Cl)cc4)CC3)cc2)cc1[N+](=O)[O-]` [ABT-737] as the compound, how does the “apoptosis induction / cytotoxic activity against BP3 cell line” value (BP3 cell line) read?
**A.** no cytotoxic activity

**Q.** Which “toxicity in MEF/DKO cells” value [2] does the source give for `Cc1cc2c(C(=O)NC[C@@H](C)c3ccccc3)c(O)c(O)cc2c(O)c1-c1c(C)cc2c(C(=O)NC[C@@H](C)c3ccccc3)c(O)c(O)cc2c1O` [Compound 14, (R)-1,1′,6,6′,7,7′-hexahydroxy-3,3′-dimethyl-N^5-((S)-2-phenylpropyl)-N^5′-((S)-2-phenylpropyl)-2,2′-binaphthyl-5,5′-dicarboxamide] here?
**A.** almost equally effective in killing both MEF/WT and MEF/DKO
